From PubChem BioAssay AID1914 (Broad Institute, 2009)
“And” between values parts separate entries of the source, which are not always exact repeats. Identical values can stand only once. Inconclusive results are not listed. The source made the active and inactive calls.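 The calls were made as follows: active = Compounds whose fitted IC50 for cell-normalized streptokinase activity falls within a set log distance above the top dose; inactive = IC50 further above the top dose than that limit.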

target: S. pyogenes M1 GAS, streptokinase activity/viability, OD405, 6 h; test: viability-normalized secreted streptokinase activity reduction – plasminogen activation absorbance, OD405, dose response (AID 1914)

Compound	IC50
CCCCCCCCCCCCCCCCn1cc[n+](C)c1	> 15 µM (inactive)
CN(C)c1ccnc2c[cH-]cc12.[Fe].c1ccc(-[c-]2[c-](-c3ccccc3)[c-](-c3ccccc3)[c-](-c3ccccc3)[c-]2-c2ccccc2)cc1 (stereo unspecified)	2.11 µM and 2.6 µM
Cc1ccc(C[n+]2c(-c3ccc(C)cc3)cc(-c3ccc(C)cc3)cc2-c2ccc(C)cc2)cc1	3.61 µM
CCN1/C(=C\C=C\C2=[N+](CC)c3ccccc3C2(C)C)C(C)(C)c2ccccc21	15.6 µM
Cc1ccc(C(O)(C(=O)NNc2ccc3ccccc3n2)c2ccc(C)cc2)cc1	> 15 µM (inactive)
CNC(CC(C)C)C(=O)NC1C(=O)NC(CC(N)=O)C(=O)NC2C(=O)NC3C(=O)NC(C(=O)NC(C(=O)O)c4cc(O)cc(O)c4-c4cc3ccc4O)C(O)c3ccc(c(Cl)c3)Oc3cc2cc(c3OC2OC(CO)C(O)C(O)C2OC2CC(C)(N)C(O)C(C)O2)Oc2ccc(cc2Cl)C1O (stereo unspecified)	> 15 µM (inactive)
